Results published in patent publication US20060148679A1, “Glycosolated enkephalin agents” (priority 2003, published 2006).

Test system: male ICR mice
Assay: 55° C. tail flick test for antinociception
Assay type: in vivo
Procedure: The mouse anti-nociception tests were conducted with male ICR mice weighing 25-35 grams using the 55° C. tail flick test. A baseline latency was taken for each mouse. Then the mice were injected with drug and tested for antinociception at various times post-injection. A ten second cut off point was used to avoid tissue damage. The percent of antinociception was calculated as ((Test latency-Control Latency)/(10-Control Latency))×100. The majority of the drugs were tested at varying dosages.
Note the in the nomenclature used in Table 2, the D-threonine residues are indicated at “t,” the “L-Ser” indicate the isomer of serine and not a second leucine, and the sugars are indicated in parenthesis at their site of attachment. The molecules have been tested for anti-nociception in the […] animal model using the standard tail flick assay. The molecules were tested for binding to the opioid receptors and for analgesic effect delivered either to the brain (ICV) or to the bloodstream (IV). Table 2 is appended to the end of this specification.

CN1CC[C@]23c4c5ccc(O)c4O[C@H]2[C@@H](O)C=C[C@H]3[C@H]1C5 [Morphine]
IV (Mouse) (delivered to the bloodstream (i.v.)): 6.3 µmol/kg | ICV (Mouse) IC50 (delivered to the brain (i.c.v.)): 2.7 nmol
